The record followed here is ChEMBL document CHEMBL1201862, “PubChem BioAssay data set” (2004).

Each structure is given as a SMILES string. The source made the active and inactive calls. Bounds are passed on as bounds.

Assay [1] has as its system INS1. Kind of assay: suppression of NO production in INS-1E cells – cell-based, Griess absorbance, dry powder, dose response (AID 488866). Particulars: Rattus norvegicus. The assay is classed as functional. In general terms: The Griess reaction detects nitrite, a stable product of nitric oxide.
For assay [2], the system named is A-375. Kind of assay: proliferation inhibition in MITF-low A375 cells – cell-based, cherry-pick samples, set 2, counter-screen for MITF modulator project, dose response (AID 540335). In kind it is functional. To be noted: Homo sapiens.
Assay [3] relates to A-375. Kind of assay: MITF: Counter assay: A375 proliferation Measured in Cell-Based System Using Plate Reader - 2084-03_Inhibitor_Dose_DryPowder_Activity. [Related pubchem assays (depositor defined):AID488944]. To be noted: Homo sapiens. In kind it is functional.
Assay [4] concerns the target T1, Heat shock factor protein 1 (Mus musculus, UniProt P38532).
T1 sequence (P38532 whole entry): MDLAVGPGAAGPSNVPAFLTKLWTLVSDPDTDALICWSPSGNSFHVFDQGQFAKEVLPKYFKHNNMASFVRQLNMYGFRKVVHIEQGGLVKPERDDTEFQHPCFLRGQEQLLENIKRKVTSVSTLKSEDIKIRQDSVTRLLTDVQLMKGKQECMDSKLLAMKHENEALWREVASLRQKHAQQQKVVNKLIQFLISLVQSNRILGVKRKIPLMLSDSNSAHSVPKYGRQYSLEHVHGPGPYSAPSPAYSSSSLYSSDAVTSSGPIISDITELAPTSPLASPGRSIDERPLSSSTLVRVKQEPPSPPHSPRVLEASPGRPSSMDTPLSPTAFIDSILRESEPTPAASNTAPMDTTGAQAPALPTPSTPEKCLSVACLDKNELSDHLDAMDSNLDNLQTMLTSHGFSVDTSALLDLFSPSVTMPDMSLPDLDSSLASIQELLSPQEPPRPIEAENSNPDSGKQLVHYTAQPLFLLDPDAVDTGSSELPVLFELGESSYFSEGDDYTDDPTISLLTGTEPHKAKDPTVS
In words: decrease of HSF1-responsive luciferase luminescence – cell-based, NIH3T3, dose retest, confirmation (AID 2382).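 Note: NIH3T3 fibroblasts with HSF1-driven luciferase reporter stressed by proteasome inhibitor MG132; luminescence from HSF1-driven luciferase expression after 8 hours of MG132 stress.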 The assay is classed as functional.

The nature of assay [5]: Luminescence Cell-Based Dose Retest to Confirm Inhibitors of Cancer Stem Cells. [Related pubchem assays (depositor defined):AID2717, AID2721]. In kind it is functional. To be noted: Homo sapiens.
Assay [6] in a line: viability loss of HMLE_sh_eGFP cells – cell-based, luminescence, counter-screen for HMLE_sh_ECad selective toxicity project, dose response (AID 463074).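 Note: HMLE human mammary epithelial cells expressing control shRNA against eGFP.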 In kind it is functional, Homo sapiens. For orientation: The purpose of a counterscreen is to sort out artefacts and off-target activity.
For assay [7], the system named is INS1. Kind of assay: INS-1E survival protection against cytokine death – cell-based, luminescence, retest, dose response (AID 449756).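 Note: cell death triggered by IL-1 beta plus TNF-alpha plus IFN-gamma mixture; protective hits raise ATP signal compared with cytokine alone wells.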 The assay is classed as functional. Particulars: Rattus norvegicus.
Assay [8] addresses T2, Voltage-gated N-type calcium channel alpha-1B subunit/Amyloid beta A4 precursor protein-binding family A member 1 (Homo sapiens, UniProt Q00975+Q02410). In words: disruptors of Mint-PDZ/N-type channel peptide interaction – biochemical, HTRF, set 2, SAR follow-up (AID 434980). The assay is classed as functional.
The target of assay [9] is T2, Voltage-gated N-type calcium channel alpha-1B subunit/Amyloid beta A4 precursor protein-binding family A member 1. In words: disruptors of Mint-PDZ/N-type channel peptide interaction – biochemical, HTRF, SAR follow-up (AID 2489). In kind it is functional. In general terms: TR-FRET usually uses a lanthanide donor and a delayed reading to cut background.
For assay [10], the target named is SUMO E1/E2 (Homo sapiens, UniProt P63279+Q9UBE0+Q9UBT2). Kind of assay: SAR analysis of SUMOylation using HTRF in an in-Vitro dose response assay. [Related pubchem assays (depositor defined):AID2006, AID2011, AID2018, AID2069, AID2658]. The assay is classed as functional.
A short description of assay [11]: HIV-1 Vif–A3G interaction blockers – biochemical, TR-FRET, GST-Vif 1-94, biotin-A3G peptide, dose response retest, primary screen (AID 1117319).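 Note: TR-FRET signal of purified GST-Vif binding a biotinylated A3G peptide; inhibitors lower the FRET signal by blocking Vif and A3G binding.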 In kind it is functional.
A short description of assay [12]: viability of HCT116 lacking mutant beta-catenin – cell-based, human colon tumor, dose response (AID 1045).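 Note: HCT116 colon tumor cells with beta catenin knocked out; cells exposed to compound for 60 hours.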 The assay is classed as functional.
Assay [13] is described as follows: viability loss in Vero cells – cytotoxicity control for Vif-APOBEC3G degradation inhibitor project, dose response (AID 1117358). In kind it is functional. To be noted: Vero.
Assay [14] in a line: non-specific 3'UTR reporter inhibition in Clone20-Shn3RL – cell-based, Renilla luciferase, cherry-picked, counter-screen for Shn3 inhibitor project, dose response (AID 624133). The assay is classed as functional.
Assay [15] has as its target T3, Protein RecA (Mycobacterium tuberculosis, UniProt P9WHJ3).
T3 sequence (P9WHJ3 whole entry): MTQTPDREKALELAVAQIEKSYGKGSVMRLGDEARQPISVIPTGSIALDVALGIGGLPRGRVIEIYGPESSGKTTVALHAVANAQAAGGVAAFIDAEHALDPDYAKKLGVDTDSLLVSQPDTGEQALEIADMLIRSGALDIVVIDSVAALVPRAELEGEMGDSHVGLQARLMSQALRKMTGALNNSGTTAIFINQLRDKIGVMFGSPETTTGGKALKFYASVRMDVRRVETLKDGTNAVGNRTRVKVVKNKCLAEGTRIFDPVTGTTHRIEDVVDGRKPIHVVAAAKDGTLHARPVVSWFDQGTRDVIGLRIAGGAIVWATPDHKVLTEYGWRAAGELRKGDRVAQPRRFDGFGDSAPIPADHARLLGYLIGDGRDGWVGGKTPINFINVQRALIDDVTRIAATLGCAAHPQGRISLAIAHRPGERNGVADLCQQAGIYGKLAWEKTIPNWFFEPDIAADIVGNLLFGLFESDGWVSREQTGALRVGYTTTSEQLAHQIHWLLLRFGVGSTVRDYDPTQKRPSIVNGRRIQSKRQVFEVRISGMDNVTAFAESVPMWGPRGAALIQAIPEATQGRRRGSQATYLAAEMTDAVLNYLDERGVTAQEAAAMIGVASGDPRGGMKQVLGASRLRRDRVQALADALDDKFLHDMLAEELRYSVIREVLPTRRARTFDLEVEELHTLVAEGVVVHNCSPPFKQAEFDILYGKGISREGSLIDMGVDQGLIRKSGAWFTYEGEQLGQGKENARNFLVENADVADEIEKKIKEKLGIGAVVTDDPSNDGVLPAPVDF
Kind of assay: Fluorescence Cell-Free Homogeneous Dose Retest to Identify Inhibitors of RecA-Intein Splicing Activity. [Related pubchem assays (depositor defined):AID2097, AID2223, AID489010, AID492950]. The assay is classed as functional.

Assay [16] relates to Jurkat. Kind of assay: blockers of NF-kB activation in T cells – Jurkat, luciferase reporter, luminescence, B- and T-cell, dose response (AID 489004).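 Note: NF-kB luciferase reporter Jurkat cells stimulated with PMA plus ionomycin.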 Particulars: Homo sapiens. The assay is classed as functional, cell-based.
Assay [17] is described as follows: Luminescence-based dose response cell-based high throughput screening assay for cytotoxic compounds using the IEC-6 intestinal epithelial cell line. [Related pubchem assays: 1858 (Summary AID.), 1825 (Counterscreen.), 1907 (Confirmation screen.)]. The assay is classed as functional.
Assay [18] concerns the target T4, Replicative DNA helicase DnaB (Mycobacterium tuberculosis, UniProt P9WMR3).
T4 sequence (P9WMR3 whole entry): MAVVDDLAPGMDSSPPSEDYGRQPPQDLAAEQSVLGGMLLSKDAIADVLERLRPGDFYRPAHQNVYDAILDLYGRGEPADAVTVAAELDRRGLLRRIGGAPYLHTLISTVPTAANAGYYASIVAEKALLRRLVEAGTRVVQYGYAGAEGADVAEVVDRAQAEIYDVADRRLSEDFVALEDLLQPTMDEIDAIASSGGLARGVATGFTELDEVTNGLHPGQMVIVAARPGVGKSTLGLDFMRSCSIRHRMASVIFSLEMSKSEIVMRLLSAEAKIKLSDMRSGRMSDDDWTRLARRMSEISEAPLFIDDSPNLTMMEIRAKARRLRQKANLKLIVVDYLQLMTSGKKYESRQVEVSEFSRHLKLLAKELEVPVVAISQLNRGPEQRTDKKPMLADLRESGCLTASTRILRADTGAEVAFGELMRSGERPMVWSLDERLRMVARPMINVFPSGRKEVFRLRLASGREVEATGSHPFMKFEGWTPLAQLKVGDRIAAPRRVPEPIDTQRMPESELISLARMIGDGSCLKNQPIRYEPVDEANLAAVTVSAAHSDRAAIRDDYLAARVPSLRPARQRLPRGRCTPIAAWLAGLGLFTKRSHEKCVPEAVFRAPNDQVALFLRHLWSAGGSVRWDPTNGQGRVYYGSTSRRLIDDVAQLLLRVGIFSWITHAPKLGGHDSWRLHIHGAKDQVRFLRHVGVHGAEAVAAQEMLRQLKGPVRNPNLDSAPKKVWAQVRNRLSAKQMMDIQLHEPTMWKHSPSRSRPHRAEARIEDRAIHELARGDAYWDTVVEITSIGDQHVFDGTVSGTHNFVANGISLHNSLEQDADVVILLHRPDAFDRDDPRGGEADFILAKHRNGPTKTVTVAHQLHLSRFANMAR
Kind of assay: DnaB intein splicing inhibitors, dose response, biochemical, cell-free fluorescence (AID 449749). The assay is classed as functional.

Assay [19] is described as follows: cAMP pathway inhibition in counterscreen cell line – TR-FRET cAMP detection, counter-screen for MC4R biased antagonist project, dose response (AID 602305).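 Note: U2OS cells stimulated with forskolin near its EC80 as the cAMP inducer; potency is for inhibition of forskolin-stimulated cAMP signaling.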 The assay is classed as functional, cell-based.
Assay [20] in a line: HEK-293T viability loss, compound-treated – cell-based, uHTS hits, cytotoxicity control for B/T-cell NF-kB inhibitor project, dose response (AID 489019).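 Note: IC50 reflects cytotoxicity as loss of cell viability.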 In kind it is functional.
Assay [21] in a line: viability of PTEN-deleted HCT116 cells – cell-based, HCT116 PTEN knockout, dose response (AID 1047).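 Note: HCT116 colon tumor cells with PTEN knocked out; cells exposed to compound for 60 hours before readout; potency for loss of cell viability measured by luminescence.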 The assay is classed as functional.
A short description of assay [22]: loss of viability in HepG2 cells – cell-based, CellTiter-Glo, cherry-picked, cytotoxicity control for Shn3 inhibitor project, dose response (AID 624134). The assay is classed as functional.
Assay [23] in a line: reduction of Shn3 3'UTR-driven luciferase in osteoblasts – cell-based, Clone20 osteoblasts, firefly luciferase, cherry-picked, dose response (AID 624132).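 Note: firefly luciferase luminescence from reporter carrying the Shn3 3'UTR in osteoblasts.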 In kind it is functional.
The target in assay [24] is Melanocortin receptor 4 (Homo sapiens, UniProt P32245). In words: inhibitors of MC4R cAMP signaling – cell-based, TR-FRET, biased antagonists, dose response (AID 602298).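 Note: antagonist potency against agonist-stimulated cAMP production.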 In kind it is functional.
Chain of Melanocortin receptor 4 (P32245 whole entry): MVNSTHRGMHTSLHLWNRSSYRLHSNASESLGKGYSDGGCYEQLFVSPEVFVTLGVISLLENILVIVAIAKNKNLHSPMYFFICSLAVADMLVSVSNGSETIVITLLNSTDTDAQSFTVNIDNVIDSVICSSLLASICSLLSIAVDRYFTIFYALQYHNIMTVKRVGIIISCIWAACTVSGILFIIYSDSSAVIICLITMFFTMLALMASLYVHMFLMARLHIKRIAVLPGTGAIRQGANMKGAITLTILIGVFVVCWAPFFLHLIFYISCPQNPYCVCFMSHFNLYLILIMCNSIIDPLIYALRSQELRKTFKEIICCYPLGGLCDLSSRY

T2 sequence (Q00975 whole entry): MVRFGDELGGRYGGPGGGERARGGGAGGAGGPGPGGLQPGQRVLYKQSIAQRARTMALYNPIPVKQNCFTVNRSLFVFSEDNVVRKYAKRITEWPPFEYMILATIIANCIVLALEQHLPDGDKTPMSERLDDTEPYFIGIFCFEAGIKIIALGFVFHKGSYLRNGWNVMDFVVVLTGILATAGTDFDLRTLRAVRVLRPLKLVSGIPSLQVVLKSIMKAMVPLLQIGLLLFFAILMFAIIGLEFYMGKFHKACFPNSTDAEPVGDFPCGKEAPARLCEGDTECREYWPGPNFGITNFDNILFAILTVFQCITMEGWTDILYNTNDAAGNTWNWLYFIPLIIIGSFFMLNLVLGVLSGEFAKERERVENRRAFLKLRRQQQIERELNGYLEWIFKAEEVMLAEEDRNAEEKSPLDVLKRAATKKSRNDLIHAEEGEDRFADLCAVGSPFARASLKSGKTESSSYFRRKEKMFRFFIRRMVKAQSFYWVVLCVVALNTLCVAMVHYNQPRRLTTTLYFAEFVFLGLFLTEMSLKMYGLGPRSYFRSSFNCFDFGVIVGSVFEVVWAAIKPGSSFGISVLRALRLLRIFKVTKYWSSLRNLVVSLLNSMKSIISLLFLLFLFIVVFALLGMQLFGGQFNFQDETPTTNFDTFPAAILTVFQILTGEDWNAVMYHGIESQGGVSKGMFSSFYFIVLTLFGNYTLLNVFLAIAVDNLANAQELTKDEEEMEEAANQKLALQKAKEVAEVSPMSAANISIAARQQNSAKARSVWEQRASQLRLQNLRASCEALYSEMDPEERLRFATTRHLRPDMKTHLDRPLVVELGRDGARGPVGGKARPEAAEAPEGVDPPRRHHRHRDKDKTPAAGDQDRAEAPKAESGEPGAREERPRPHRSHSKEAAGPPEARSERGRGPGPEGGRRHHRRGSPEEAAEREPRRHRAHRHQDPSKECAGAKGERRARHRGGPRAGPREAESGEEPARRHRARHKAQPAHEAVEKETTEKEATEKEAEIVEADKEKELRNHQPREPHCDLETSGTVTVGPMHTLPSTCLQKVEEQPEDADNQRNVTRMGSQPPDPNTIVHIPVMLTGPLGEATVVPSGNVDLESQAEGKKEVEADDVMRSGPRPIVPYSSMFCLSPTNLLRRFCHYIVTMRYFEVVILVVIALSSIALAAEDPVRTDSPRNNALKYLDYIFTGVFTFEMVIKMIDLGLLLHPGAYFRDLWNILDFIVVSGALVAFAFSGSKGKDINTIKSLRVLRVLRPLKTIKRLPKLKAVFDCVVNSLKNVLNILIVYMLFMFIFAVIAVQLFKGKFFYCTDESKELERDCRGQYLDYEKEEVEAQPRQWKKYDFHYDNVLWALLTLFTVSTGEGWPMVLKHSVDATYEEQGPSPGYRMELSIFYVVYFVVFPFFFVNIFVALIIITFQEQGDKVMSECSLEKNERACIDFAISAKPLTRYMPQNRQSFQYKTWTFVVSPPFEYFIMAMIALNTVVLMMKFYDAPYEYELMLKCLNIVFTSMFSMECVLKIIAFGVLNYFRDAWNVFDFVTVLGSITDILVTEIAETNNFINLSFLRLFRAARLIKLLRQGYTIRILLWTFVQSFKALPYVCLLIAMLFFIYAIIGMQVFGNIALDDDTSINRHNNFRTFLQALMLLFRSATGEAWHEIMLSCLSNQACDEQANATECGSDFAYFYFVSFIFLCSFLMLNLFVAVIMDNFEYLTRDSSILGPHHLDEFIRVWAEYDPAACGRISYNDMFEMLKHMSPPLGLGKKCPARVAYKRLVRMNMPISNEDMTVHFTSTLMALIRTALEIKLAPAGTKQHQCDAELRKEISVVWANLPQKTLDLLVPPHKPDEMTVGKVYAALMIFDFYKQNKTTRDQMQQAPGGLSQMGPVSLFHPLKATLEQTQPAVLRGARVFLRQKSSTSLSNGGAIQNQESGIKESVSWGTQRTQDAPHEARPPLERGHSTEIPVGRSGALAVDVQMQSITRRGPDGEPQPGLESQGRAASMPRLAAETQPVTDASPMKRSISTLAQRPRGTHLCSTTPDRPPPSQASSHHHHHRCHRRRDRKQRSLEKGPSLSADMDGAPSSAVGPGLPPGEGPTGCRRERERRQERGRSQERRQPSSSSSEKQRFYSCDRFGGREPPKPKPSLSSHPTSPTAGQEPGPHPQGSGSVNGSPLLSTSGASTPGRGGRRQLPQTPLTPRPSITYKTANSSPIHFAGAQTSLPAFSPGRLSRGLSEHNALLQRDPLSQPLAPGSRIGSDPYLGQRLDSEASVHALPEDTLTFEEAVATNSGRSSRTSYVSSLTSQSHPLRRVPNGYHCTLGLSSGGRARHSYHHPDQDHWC
T2 sequence (Q02410 whole entry): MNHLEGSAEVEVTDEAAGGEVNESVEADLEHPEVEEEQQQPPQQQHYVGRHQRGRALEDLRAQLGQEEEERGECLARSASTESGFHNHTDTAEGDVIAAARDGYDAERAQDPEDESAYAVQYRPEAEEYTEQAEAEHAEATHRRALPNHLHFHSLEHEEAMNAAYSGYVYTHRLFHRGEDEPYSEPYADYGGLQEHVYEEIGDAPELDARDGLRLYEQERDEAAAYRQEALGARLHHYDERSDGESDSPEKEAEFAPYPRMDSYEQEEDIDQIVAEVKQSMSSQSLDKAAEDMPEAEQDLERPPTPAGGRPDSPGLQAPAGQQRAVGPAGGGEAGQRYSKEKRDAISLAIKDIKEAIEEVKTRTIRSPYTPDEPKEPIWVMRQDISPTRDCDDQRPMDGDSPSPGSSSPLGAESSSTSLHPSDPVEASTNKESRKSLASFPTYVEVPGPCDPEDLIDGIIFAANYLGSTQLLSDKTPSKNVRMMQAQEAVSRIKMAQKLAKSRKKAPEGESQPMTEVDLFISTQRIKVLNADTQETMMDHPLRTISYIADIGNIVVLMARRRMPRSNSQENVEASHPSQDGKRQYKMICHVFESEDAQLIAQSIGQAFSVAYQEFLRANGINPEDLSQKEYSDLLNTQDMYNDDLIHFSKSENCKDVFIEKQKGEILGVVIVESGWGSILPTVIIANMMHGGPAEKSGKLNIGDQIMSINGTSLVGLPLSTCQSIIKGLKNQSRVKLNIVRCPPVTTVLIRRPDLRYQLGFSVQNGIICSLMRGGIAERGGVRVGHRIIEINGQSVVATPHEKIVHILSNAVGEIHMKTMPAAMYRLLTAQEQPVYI
Chain of SUMO E1/E2 (Q9UBE0 whole entry): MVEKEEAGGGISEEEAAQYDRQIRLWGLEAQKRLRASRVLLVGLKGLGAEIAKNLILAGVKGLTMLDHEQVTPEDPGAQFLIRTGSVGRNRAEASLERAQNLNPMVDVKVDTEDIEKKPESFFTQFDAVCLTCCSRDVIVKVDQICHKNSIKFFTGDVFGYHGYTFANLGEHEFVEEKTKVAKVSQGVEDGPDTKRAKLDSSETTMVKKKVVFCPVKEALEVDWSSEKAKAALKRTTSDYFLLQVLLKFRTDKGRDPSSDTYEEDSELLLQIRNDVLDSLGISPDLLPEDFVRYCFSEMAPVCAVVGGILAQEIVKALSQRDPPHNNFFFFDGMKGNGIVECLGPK
Chain of SUMO E1/E2 (Q9UBT2 whole entry): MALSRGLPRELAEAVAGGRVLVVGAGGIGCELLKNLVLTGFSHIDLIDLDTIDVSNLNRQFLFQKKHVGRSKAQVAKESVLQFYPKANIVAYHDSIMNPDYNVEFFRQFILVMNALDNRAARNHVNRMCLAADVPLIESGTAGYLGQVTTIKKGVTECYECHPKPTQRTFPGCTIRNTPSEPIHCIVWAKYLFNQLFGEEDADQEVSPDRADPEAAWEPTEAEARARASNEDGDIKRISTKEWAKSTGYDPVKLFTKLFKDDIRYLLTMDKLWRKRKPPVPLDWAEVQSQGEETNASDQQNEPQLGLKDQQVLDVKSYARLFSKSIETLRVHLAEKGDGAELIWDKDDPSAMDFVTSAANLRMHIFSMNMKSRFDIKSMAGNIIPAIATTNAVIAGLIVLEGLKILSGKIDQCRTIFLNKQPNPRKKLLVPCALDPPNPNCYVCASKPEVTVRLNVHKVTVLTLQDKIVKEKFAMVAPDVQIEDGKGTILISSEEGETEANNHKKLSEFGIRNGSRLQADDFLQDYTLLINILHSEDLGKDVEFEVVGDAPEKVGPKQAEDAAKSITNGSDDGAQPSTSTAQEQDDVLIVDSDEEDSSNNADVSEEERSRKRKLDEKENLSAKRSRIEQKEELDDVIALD
Chain of SUMO E1/E2 (P63279 whole entry): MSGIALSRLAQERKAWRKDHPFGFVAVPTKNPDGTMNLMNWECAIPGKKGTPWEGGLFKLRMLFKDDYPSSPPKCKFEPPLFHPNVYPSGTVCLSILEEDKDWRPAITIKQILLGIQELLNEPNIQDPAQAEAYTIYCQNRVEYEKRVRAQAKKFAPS

Broadly, the AC50 is the concentration giving half of the maximal activity seen. Regarding `COc1ccc(S(=O)(=O)N(C)C[C@@H]2Oc3c(NC(=O)Nc4ccccc4-c4ccccc4)cccc3C(=O)N([C@@H](C)CO)C[C@H]2C)cc1`, the half-maximal activity concentration (AC50) in assay [1] is 33.4 µM (active).

In the case of `COc1ccc(CCC(=O)N2CCc3ccccc32)cc1`, the AC50 in [2] and in assay [3] was > 35 µM (active) throughout.

What is called EC50 is the concentration needed to bring the measured effect to its halfway point. Turning to `Cc1oc(/N=C/c2ccccc2)c(C#N)c1C`, the EC50 in assay [4] is reported as > 195 µM (not active). The AC50 in [5] was > 195 µM (inactive); in [6], 33.8 µM (active); in [7], > 260 µM (inactive).

A word on the IC50: it is the concentration that inhibits the measured activity by half. With `Cc1ccccc1CNC(=O)COC(=O)c1cc(-c2ccco2)nc2ccccc12`, the IC50 was 10.9 µM (active) in assay [8], 20.2 µM (active) in [9] and 3.83 µM (active) in [10].

The CC50 is the concentration that lowers cell viability or growth by half. As to `C#CC(=O)N(c1cc(OC)ccc1OC)C(C(=O)NC1CCCC1)c1cccs1` (stereo not given), the IC50 in assay [11] was > 100 µM (active); in assay [16] it was 0.23 µM (active); in [17] it was 0.096 µM (active); in [19] it was > 64.6 µM (inactive); in [20], 55.6 µM (inactive); in assay [24], > 64.6 µM (inactive). Moreover, the EC50 is 3.99 µM (active) in [12], 0.692 µM (active) in assay [4], 2.46 µM (active) in [15] and 4.13 µM (active) in assay [21]. For the same compound, the CC50 in assay [13] is 0.087 µM (active). The AC50 in [14] was 0.563 µM (active); in [18], 1.94 µM (active); in assay [22], 1.25 µM (active); in [23], 4.57 µM (active).
